We go through 20 compounds from paper PMC10384011, “m-Terphenylamines, Acting as Selective COX-1 Inhibitors, Block Microglia Inflammatory Response and Exert Neuroprotective Activity” (Molecules, 2023).

For data set [1], the target named is T1, human COX-2 (Homo sapiens, UniProt P35354).
T1 construct: purchased Cayman Chemicals 701050
T1 sequence (P35354 18-604): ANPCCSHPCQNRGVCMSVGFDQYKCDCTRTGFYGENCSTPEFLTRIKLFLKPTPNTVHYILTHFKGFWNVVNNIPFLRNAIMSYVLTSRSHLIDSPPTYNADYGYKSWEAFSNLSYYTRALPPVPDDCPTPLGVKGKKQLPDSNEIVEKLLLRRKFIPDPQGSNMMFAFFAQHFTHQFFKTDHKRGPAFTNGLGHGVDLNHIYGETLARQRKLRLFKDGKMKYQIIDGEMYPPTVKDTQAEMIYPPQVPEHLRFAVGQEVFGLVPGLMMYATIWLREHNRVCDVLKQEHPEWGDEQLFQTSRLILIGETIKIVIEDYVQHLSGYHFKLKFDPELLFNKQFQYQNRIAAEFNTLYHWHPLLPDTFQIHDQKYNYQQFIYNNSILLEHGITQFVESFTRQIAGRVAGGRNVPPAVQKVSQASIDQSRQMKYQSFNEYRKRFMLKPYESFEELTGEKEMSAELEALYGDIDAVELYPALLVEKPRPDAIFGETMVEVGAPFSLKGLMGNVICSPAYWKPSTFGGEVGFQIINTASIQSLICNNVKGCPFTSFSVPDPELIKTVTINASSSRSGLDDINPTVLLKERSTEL
The data set can be described thus: Cyclooxygenase colorimetric inhibitor screening assay, COX-2.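 As to all read-outs here: peroxidase activity of COX-2 followed colorimetrically through formation of oxidized TMPD at 590 nm, with arachidonic acid as substrate, compounds tested from 0.001 to 50 µM.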 In kind it is biochemical. The note with it: read-out: hCOX-2; for IC50: human COX-2, colorimetric kit; for inhibition at 50 µM: human COX-2, 50 µM.
Procedure: (§1) Newly synthesized compounds were evaluated for their ability to inhibit ovine COX-1 or human COX-2 enzyme by measuring the extent (%) of enzyme activity inhibition at different concentrations (0.001, 0.01, 0.1, 1, 10, 50 μM). […] The assay kit measures the peroxidase component of COXs that is assayed colorimetrically by monitoring the appearance of oxidized N,N,N′,N′-tetramethyl-p-phenylenediamine (TMPD) a λ = 590 nm. […] Stock solutions of test compounds were dissolved in DMSO.

Data set [2] deals with T2, ovine COX-1 (Ovis aries, UniProt P05979).
T2 construct: purchased Cayman Chemicals 701050
T2 sequence (P05979 25-600): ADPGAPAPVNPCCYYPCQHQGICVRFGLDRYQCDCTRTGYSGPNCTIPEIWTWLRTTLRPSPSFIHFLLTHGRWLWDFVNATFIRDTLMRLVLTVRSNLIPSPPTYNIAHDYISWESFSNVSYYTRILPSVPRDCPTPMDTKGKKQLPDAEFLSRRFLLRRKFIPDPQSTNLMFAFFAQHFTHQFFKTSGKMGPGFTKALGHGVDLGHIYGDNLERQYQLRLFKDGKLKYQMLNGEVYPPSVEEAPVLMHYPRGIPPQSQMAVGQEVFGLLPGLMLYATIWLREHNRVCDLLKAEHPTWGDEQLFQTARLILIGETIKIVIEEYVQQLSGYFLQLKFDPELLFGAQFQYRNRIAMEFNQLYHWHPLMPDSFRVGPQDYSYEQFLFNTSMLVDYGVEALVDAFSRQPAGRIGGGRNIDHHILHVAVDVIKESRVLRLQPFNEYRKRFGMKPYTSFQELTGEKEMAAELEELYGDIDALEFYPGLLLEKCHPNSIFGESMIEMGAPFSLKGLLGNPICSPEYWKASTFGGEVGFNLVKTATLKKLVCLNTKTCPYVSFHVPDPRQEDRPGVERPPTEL
Put plainly: Cyclooxygenase colorimetric inhibitor screening assay, COX-1.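 As to all read-outs here: COX peroxidase activity read colorimetrically as oxidized TMPD at 590 nm, arachidonic acid as substrate, inhibitors tested at 0.001–50 µM from DMSO stocks.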 The format is biochemical. The note with it: for IC50: ovine COX-1, colorimetric kit, triplicate; for IC50 / inhibition at 50 µM: read-out: oCOX-1; for inhibition at 50 µM: % Inhibition at 50 µM (converted).
Procedure: as §1

Data set [3] relates to BV2 microglia cells. Put plainly: ROS production (H2DCFDA) in LPS-treated BV2 microglia. In kind it is cell-based. The conditions noted are these: 3 μM, LPS 1 μg/mL, 24 h. The source says:
Activation of toll-like receptors (TLRs), particularly the TLR4 subtype, is closely associated with the production of reactive oxygen and nitrogen species that contribute to neuronal death in the CNS. In this connection, NADPH oxidase enzymes are the main ones responsible for ROS production induced by NF-κB nuclear translocation. For this reason, we decided to assess the ROS levels of BV2 microglia cells treated with LPS and the effect of our compounds under this toxicity protocol. To this end, the compounds, at different concentrations (3 μM of 3a, 3b, and 3d and 10 μM of 3c) were incubated with 1 μg/mL LPS for 24 h. After this period, ROS production was measured with the fluorescent probe H2DCFDA. Treatment with LPS increased by 1.75-fold the amount of ROS compared with control cells.
Cultures were seeded into flasks containing supplemented medium and kept at 37 °C in a humidified atmosphere of 5% CO2 and 95% air. For assays, BV-2 cells were subcultured in 48-well plates at a seeding density of 1 × 10^5 cells per well. Cells were treated with LPS (Sigma-Aldrich, Madrid, Spain) for 24 or 48 h before confluence in RPMI with 1% FBS.
To measure cellular ROS, we used the molecular probe 2′,7′-dichlorodihydrofluorescein diacetate (H2DCFDA). Glial cells were loaded with 5 µM H2DCFDA as it was previously described (Parada et al., 2015). Fluorescence was measured in a fluorescence microplate reader (FLUOstar Galaxy; BMG Labtech, Offenburg, Germany). Wavelengths of excitation and emission were 485 and 520 nm, respectively. The relative pixel intensity was measured in identical regions with (ImageJ 1.52a software, National Institutes of Health, Bethesda, MD, USA).

What is called melting point is the temperature of the solid-liquid transition. `O=C(Nc1cc(-c2ccc(Cl)cc2)cc(-c2ccc(Cl)cc2)c1)NC1CCCC1` [Compound 4d, 1-([4,4″-Dichloro-m-terphenyl]-5′-yl)-3-cyclopentylurea] had a melting point of 239 to 240 °C. Besides, the IC50 in data set [1] was over 50 µM. In addition, the IC50 in data set [2] is over 50 µM.
As for `CCOC(=O)c1c(NC(=O)NC2CCCCC2)cc(-c2ccccc2)cc1-c1ccc(OC)cc1` [Compound 5, Ethyl 6-(3′-cyclohexylureido)-2-(4-methoxyphenyl)-4-phenylbenzoate], the IC50 in data set [1] and in data set [2] was over 50 µM throughout.
For the compound `COc1ccc(-c2cc(N)c(C(=O)O)c(-c3ccccc3)c2)cc1` [Compound 2e, 6-Amino-2-phenyl-4-(4-methoxyphenyl)benzoic acid], the inhibition at 50 µM in data set [1] came out at 20%. Moreover, the IC50 in data set [2] is over 50 µM.
Take `Cc1ccc(-c2cc(N)c(C(=O)O)c(-c3ccccc3)c2)cc1` [Compound 2b, 6-Amino-2-phenyl-4-(4-tolyl)benzoic acid]: the inhibition at 50 µM in data set [1] was 2%; in data set [2] (ovine COX-1, 50 µM), 46%.
On to `O=C(Nc1cc(-c2ccccc2)cc(-c2ccccc2)c1)NC1CCCC1` [Compound 4a, 1-([m-Terphenyl]-5′-yl)-3-cyclopentyl urea], for which the IC50 in data set [1] and in data set [2] was over 50 µM in each case.
Compound `Cc1ccc(-c2cc(NC(=O)NC3CCCC3)cc(-c3ccccc3)c2)cc1` [Compound 4b, 1-([4-Methyl-m-terphenyl]-5′-yl)-3-cyclopentyl urea] had a melting point of 217 to 218 °C. Also, the IC50 in data set [1] is over 50 µM. The IC50 in data set [2] is over 50 µM.
In turn, `COc1ccc(-c2cc(NC(=O)NC3CCCC3)cc(-c3ccccc3)c2)cc1` [Compound 4e, 1-([4-Methoxy-m-terphenyl]-5′-yl)-3-cyclopentylurea] had a melting point of 208 to 209 °C. The IC50 in data set [1] is over 50 µM. Also, the IC50 in data set [2] is over 50 µM.
Consider `O=C(Nc1cc(-c2ccccc2)cc(-c2ccc(Cl)cc2)c1)NC1CCCC1` [Compound 4c, 1-([4-Chloro-m-terphenyl]-5′-yl)-3-cyclopentylurea], for which the melting point was in the range of 203 to 204 °C. Also, in data set [1], the IC50 is over 50 µM. For the same compound, in data set [2], the IC50 was over 50 µM.
In turn, `Nc1cc(-c2ccccc2)cc(-c2ccccc2)c1C(=O)O` [Compound 2a, 6-Amino-2,4-diphenylbenzoic acid] registered a melting point of 162 to 163 °C. Moreover, the inhibition at 50 µM in data set [1] was 3%. Moreover, in data set [2] (ovine COX-1, 50 µM), the inhibition at 50 µM is 32%.
With `Nc1cc(-c2ccc(Cl)cc2)cc(-c2ccc(Cl)cc2)c1` [Compound 3d, 4,4″-Dichloro-5′-amino-m-terphenyl], the IC50 in data set [1] is over 50 µM. Further, the inhibition at 50 µM in data set [2] (ovine COX-1, 50 µM) was 36%. The “ROS production induced by LPS” value in data set [3] is given as “failed to decrease the levels of ROS”.
As for `c1ccc(Nc2cc(-c3ccccc3)cc(-c3ccccc3)c2)cc1` [Compound 3g, 5′-Phenylamino-m-terphenyl], the IC50 in data set [1] and in data set [2] was over 50 µM each time.
For the compound “ethyl 6-amino-2-(4-methoxyphenyl)-2-phenylbenzoate [Compound 1e]”, the IC50 in data set [1] was over 50 µM. For the same compound, the “oCOX-1; % Inhibition at 50 µM” value in data set [2] (ovine COX-1, 50 µM) is on record as “NM (9) %”.
In turn, `Nc1cc(-c2ccc(Br)cc2)cc(-c2ccc(Br)cc2)c1C(=O)O` [Compound 2f, 6-Amino-2,4-di-(4-bromophenyl)benzoic acid] displayed a melting point of 239 to 240 °C. The inhibition at 50 µM in data set [1] came to 12%. The inhibition at 50 µM in data set [2] (ovine COX-1, 50 µM) is 8%.
In turn, `Nc1cc(-c2ccc(Cl)cc2)cc(-c2ccccc2)c1C(=O)O` [Compound 2c, 6-Amino-2-phenyl-4-(4-chlorophenyl)benzoic acid] showed a melting point of 229 to 230 °C. Further, the inhibition at 50 µM in data set [1] was found to be 4%. Moreover, the IC50 in data set [2] is over 50 µM.
As to `Nc1cc(-c2ccc(Cl)cc2)cc(-c2ccc(Cl)cc2)c1C(=O)O` [Compound 2d, 6-Amino-2,4-di-(4-chlorophenyl)benzoic acid], the melting point lay in the range of 178 to 179 °C. The inhibition at 50 µM in data set [1] came out at 13%. In addition, the IC50 in data set [2] is over 50 µM.
With `COc1ccc(-c2noc(CC(=O)O)c2-c2ccc(OC)cc2)cc1` [Mofezolac, mofezolac, reference compound], the inhibition at 50 µM in data set [1] is 42%; in data set [2] (ovine COX-1, 50 µM), 100%.
The compound `Nc1cc(-c2ccc(Br)cc2)cc(-c2ccc(Br)cc2)c1` [Compound 3f, 4,4″-Dibromo-5′-amino-m-terphenyl] had a melting point of 163 to 164 °C. For the same compound, the IC50 in data set [1] is over 50 µM. The IC50 in data set [2] was over 50 µM.
For the compound `O=C(Nc1cc(-c2ccc(Br)cc2)cc(-c2ccc(Br)cc2)c1)NC1CCCC1` [Compound 4f, 1-([4,4″-Dibromo-m-terphenyl]-5′-yl)-3-cyclopentylurea], the melting point is 222 to 223 °C. In data set [1], the inhibition at 50 µM amounted to 30%. In data set [2] (ovine COX-1, 50 µM), the inhibition at 50 µM is 10%. Besides, the “COX-1 selectivity (in words)” value in data set [2] (ovine COX-1 vs human COX-2) is listed as “did not show COX-1 selectivity”.
Consider `O=C(O)c1c(Nc2ccccc2)cc(-c2ccccc2)cc1-c1ccccc1` [Compound 2g, 6-Phenylamino-2,4-diphenylbenzoic acid], for which the inhibition at 50 µM in data set [1] was 13%; in data set [2] (ovine COX-1, 50 µM), 7%.
On to `CCOC(=O)c1c(N)cc(-c2ccccc2)cc1-c1ccccc1` [Compound 1a, ethyl 6-amino-2,4-diphenylbenzoate], for which the IC50 in data set [1] and in data set [2] was over 50 µM each time.
